#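 All cell lines were grown in 96-well plates and treated with compound for 48 hours. GI50 = concentration required for 50% inhibition of growth. TGI is the concentration that stops growth completely.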
# Legend:
# Test in all cases: NCI tumour cell line growth inhibition, 48 h
# [1] = test system: 786-0 renal
# [2] = test system: A498 renal
# [3] = test system: A549 NSCLC
# [4] = test system: ACHN renal
# [5] = test system: BT-549 breast
# [6] = test system: CAKI-1 renal
# [7] = test system: CCRF-CEM leukemia
# [8] = test system: COLO 205 colon
# [9] = test system: DU-145 prostate
# [10] = test system: EKVX NSCLC
# [11] = test system: HCC-2998 colon
# [12] = test system: HCT-116 colon
# [13] = test system: HCT-15 colon
# [14] = test system: HL-60(TB) leukemia
# [15] = test system: HOP-62 NSCLC
# [16] = test system: HOP-92 NSCLC
# [17] = test system: HS 578T breast
# [18] = test system: HT29 colon
# [19] = test system: IGROV1 ovarian
# [20] = test system: K-562 leukemia
# [21] = test system: KM12 colon
# [22] = test system: LOX IMVI melanoma
# [23] = test system: M14 melanoma
# [24] = test system: MALME-3M melanoma
# [25] = test system: MCF7 breast
# [26] = test system: MDA-MB-231 breast
# [27] = test system: MDA-MB-435
# [28] = test system: MOLT-4 leukemia
# [29] = test system: NCI-H226 lung
smiles,measurement,setting,value
COc1cccc(COc2cc(-n3cnc4ccccc43)sc2C(N)=O)c1,GI50,[1],> 25 µM
same,TGI,[1],> 25 µM
same,GI50,[2],0.92 µM
same,TGI,[2],> 25 µM
same,GI50,[3],> 21.7 µM
same,TGI,[3],> 25 µM
same,GI50,[4],> 25 µM
same,TGI,[4],> 25 µM
same,GI50,[5],> 21 µM
same,TGI,[5],> 25 µM
same,GI50,[6],> 25 µM
same,TGI,[6],> 25 µM
same,GI50,[7],1.15 µM
same,TGI,[7],> 25 µM
same,GI50,[8],4.75 µM
same,TGI,[8],> 25 µM
same,GI50,[9],> 10.3 µM
same,TGI,[9],> 25 µM
same,GI50,[10],> 25 µM
same,TGI,[10],> 25 µM
same,GI50,[11],> 25 µM
same,TGI,[11],> 25 µM
same,GI50,[12],12.8 µM
same,TGI,[12],> 25 µM
same,GI50,[13],> 25 µM
same,TGI,[13],> 25 µM
same,GI50,[14],6.03 µM
same,TGI,[14],> 25 µM
same,GI50,[15],5.34 µM
same,TGI,[15],> 25 µM
same,GI50,[16],> 5.9 µM
same,TGI,[16],> 25 µM
same,GI50,[17],> 17.7 µM
same,TGI,[17],> 25 µM
same,GI50,[18],2.03 µM
same,TGI,[18],> 25 µM
same,GI50,[19],> 23.8 µM
same,TGI,[19],> 25 µM
same,GI50,[20],> 25 µM
same,TGI,[20],> 25 µM
same,GI50,[21],2.42 µM
same,TGI,[21],> 25 µM
same,GI50,[22],> 25 µM
same,TGI,[22],> 25 µM
same,GI50,[23],> 25 µM
same,TGI,[23],> 25 µM
same,GI50,[24],> 25 µM
same,TGI,[24],> 25 µM
same,GI50,[25],1.08 µM
same,TGI,[25],> 25 µM
same,GI50,[26],14.8 µM
same,TGI,[26],> 25 µM
same,GI50,[27],1.3 µM
same,TGI,[27],> 25 µM
same,GI50,[28],> 14.8 µM
same,TGI,[28],> 25 µM
same,GI50,[29],> 20.5 µM
same,TGI,[29],> 25 µM

# From PubChem BioAssay (NCI)
